#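 Assay format: 96-well plates, 48-hour exposure. GI50: concentration for 50% inhibition of growth.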 Calls of active or inactive are those of the source. Cut-off read from the data, not from the text of the source: active = GI50 up to about 1.1 µM and inactive = higher.
# Assays:
# Experiment in all cases: NCI anticancer screen, dose series, 48 h
# BT-549 = system: BT-549
# NCI/ADR-RES = system: NCI/ADR-RES
# NCI-H460 = system: NCI-H460
# HCT-116 = system: HCT-116
# SW-620 = system: SW-620
# SF-295 = system: SF-295
# SNB-75 = system: SNB-75
# NCI-H522 = system: NCI-H522
# SK-MEL-5 = system: SK-MEL-5
# EKVX = system: EKVX
# 786-0 = system: 786-0
# OVCAR-5 = system: OVCAR-5
# NCI-H23 = system: NCI-H23
# CCRF-CEM = system: CCRF-CEM
# HOP-92 = system: HOP-92
# UACC-257 = system: UACC-257
# SF-268 = system: SF-268
# MCF7 = system: MCF7
# RPMI-8226 = system: RPMI-8226
# IGROV-1 = system: IGROV-1
SMILES,GI50 (BT-549),GI50 (NCI/ADR-RES),GI50 (NCI-H460),GI50 (HCT-116),GI50 (SW-620),GI50 (SF-295),GI50 (SNB-75),GI50 (NCI-H522),GI50 (SK-MEL-5),GI50 (EKVX),GI50 (786-0),GI50 (OVCAR-5),GI50 (NCI-H23),GI50 (CCRF-CEM),GI50 (HOP-92),GI50 (UACC-257),GI50 (SF-268),GI50 (MCF7),GI50 (RPMI-8226),GI50 (IGROV-1)
CCOC(=O)c1c(N2CCCC2)[nH]c(=O)c(C(c2ccc(Cl)c([N+](=O)[O-])c2)c2c(O)c(C(=O)OCC)c(N3CCCC3)[nH]c2=O)c1O,16.3 µM (inactive),28.7 µM (inactive),> 100 µM (inactive),34 µM (inactive),33.3 µM (inactive),37.6 µM (inactive),9.86 µM (inactive),24.5 µM (inactive),37.8 µM (inactive),33.7 µM (inactive),27.2 µM (inactive),30.2 µM (inactive),22 µM (inactive),23.6 µM (inactive),18.5 µM (inactive),41.5 µM (inactive),23 µM (inactive),28.6 µM (inactive),42.9 µM (inactive),–
CN(Cc1cnc2nc(N)nc(N)c2n1)c1ccc(C(=O)NCCCC(=O)O)cc1,> 65 µM (inactive),> 31.4 µM (inactive),7.24 µM (inactive),3.39 µM (inactive),5.7 µM (inactive),12.3 µM (inactive),> 62.7 µM (inactive),16.2 µM (inactive),49.2 µM (inactive),> 29 µM (inactive),12.5 µM (inactive),> 100 µM (inactive),37.3 µM (inactive),17.3 µM (inactive),> 100 µM (inactive),98.9 µM (inactive),29.9 µM (inactive),5.02 µM (inactive),> 40 µM (inactive),16.1 µM (inactive)
COC(=O)C1=C(C)NC2(O)C=CC(=O)C3C(=O)N(c4ccccc4)C(=O)C132 (stereo not drawn),64.1 µM (inactive),> 100 µM (inactive),> 100 µM (inactive),73.6 µM (inactive),56.5 µM (inactive),> 100 µM (inactive),> 100 µM (inactive),32.5 µM (inactive),> 100 µM (inactive),> 100 µM (inactive),98.2 µM (inactive),61.2 µM (inactive),> 100 µM (inactive),35 µM (inactive),37.3 µM (inactive),90.8 µM (inactive),> 100 µM (inactive),> 100 µM (inactive),36.2 µM (inactive),> 100 µM (inactive)
Nc1ncc(N)c(NCC2(CO)CC(CCc3ccccc3)C2)n1 (stereo not drawn),9.75 µM (inactive),12.4 µM (inactive),13.1 µM (inactive),6.55 µM (inactive),9.98 µM (inactive),11.1 µM (inactive),12.6 µM (inactive),0.718 µM (active),3.13 µM (inactive),8.47 µM (inactive),8.47 µM (inactive),14.7 µM (inactive),5.13 µM (inactive),0.413 µM (active),3.39 µM (inactive),8.85 µM (inactive),5.58 µM (inactive),3.37 µM (inactive),0.482 µM (active),7.94 µM (inactive)
Cc1nn(C)c2nc3ccc(Cl)cc3c(-c3ccccc3)c12,> 100 µM (inactive),> 100 µM (inactive),> 100 µM (inactive),> 100 µM (inactive),> 100 µM (inactive),> 100 µM (inactive),> 100 µM (inactive),> 100 µM (inactive),–,> 100 µM (inactive),> 100 µM (inactive),95.3 µM (inactive),> 100 µM (inactive),> 100 µM (inactive),> 100 µM (inactive),> 100 µM (inactive),> 100 µM (inactive),> 100 µM (inactive),> 100 µM (inactive),–
CC1=CCCC(C)(O)C2CC(CCC3(C)OC3CC1)C(C)C(=O)O2 (stereo not drawn),> 100 µM (inactive),> 100 µM (inactive),> 100 µM (inactive),> 100 µM (inactive),> 100 µM (inactive),> 100 µM (inactive),> 100 µM (inactive),> 100 µM (inactive),> 100 µM (inactive),> 100 µM (inactive),> 100 µM (inactive),> 100 µM (inactive),> 100 µM (inactive),> 100 µM (inactive),> 10 µM (inactive),> 100 µM (inactive),> 100 µM (inactive),> 100 µM (inactive),> 100 µM (inactive),> 100 µM (inactive)
CCCCCN1C(=O)C(Cc2ccccc2)N=C(c2ccc(O)cc2)c2cc(Cl)ccc21 (stereo not drawn),17.4 µM (inactive),8.11 µM (inactive),7.73 µM (inactive),7.94 µM (inactive),10.9 µM (inactive),6.93 µM (inactive),4.61 µM (inactive),2.55 µM (inactive),–,8.41 µM (inactive),13.6 µM (inactive),22.3 µM (inactive),4.98 µM (inactive),12.2 µM (inactive),10.7 µM (inactive),7.66 µM (inactive),8.73 µM (inactive),9.98 µM (inactive),2.9 µM (inactive),6.73 µM (inactive)
Cc1ccccc1NC(=S)N/N=C(/c1ccccc1)c1ccccn1,2.58 µM (inactive),< 0.0187 µM (active),0.0702 µM (active),< 0.01 µM (active),< 0.01 µM (active),0.0883 µM (active),0.933 µM (active),0.0902 µM (active),0.0664 µM (active),< 0.0381 µM (active),< 0.0214 µM (active),< 0.0165 µM (active),< 0.01 µM (active),< 0.01 µM (active),0.283 µM (active),< 0.01 µM (active),0.0904 µM (active),0.0215 µM (active),< 0.01 µM (active),< 0.01 µM (active)
C[N+](C)(C)c1nc(N)nc2c1ncn2C1OC(CO)C(O)C1O (stereo not drawn),> 100 µM (inactive),> 100 µM (inactive),> 100 µM (inactive),> 100 µM (inactive),> 100 µM (inactive),–,> 100 µM (inactive),> 100 µM (inactive),> 100 µM (inactive),> 100 µM (inactive),> 100 µM (inactive),> 100 µM (inactive),> 100 µM (inactive),3.08 µM (inactive),> 100 µM (inactive),> 100 µM (inactive),> 100 µM (inactive),> 100 µM (inactive),> 100 µM (inactive),> 100 µM (inactive)
O=[N+]([O-])/C(Cl)=C/C(=C1/Nc2ccccc2O1)[N+](=O)[O-],16.3 µM (inactive),24.3 µM (inactive),31.5 µM (inactive),13.9 µM (inactive),32.7 µM (inactive),26.7 µM (inactive),14.1 µM (inactive),13.5 µM (inactive),22.2 µM (inactive),18.8 µM (inactive),31.8 µM (inactive),–,17.8 µM (inactive),13.3 µM (inactive),24.7 µM (inactive),5.79 µM (inactive),16.3 µM (inactive),29.6 µM (inactive),28.5 µM (inactive),33.1 µM (inactive)
COc1cccc2c1C(=O)c1c(O)c3c(c(O)c1C2=O)C[C@@](O)(C(=O)CO)CC3OC1CC(O)C(O)C(C)O1 (stereo partly drawn),0.279 µM (active),1.13 µM (inactive),< 0.01 µM (active),0.0553 µM (active),0.145 µM (active),0.104 µM (active),0.167 µM (active),0.211 µM (active),0.142 µM (active),1.72 µM (inactive),0.103 µM (active),0.424 µM (active),0.0879 µM (active),0.0217 µM (active),0.138 µM (active),0.453 µM (active),0.21 µM (active),< 0.01 µM (active),0.199 µM (active),0.333 µM (active)
CCCc1ccc(OCC(=O)N/N=C/c2c(-c3ccccc3)[nH]c3ccccc23)cc1,13.8 µM (inactive),6.81 µM (inactive),4 µM (inactive),8.97 µM (inactive),10.6 µM (inactive),8.69 µM (inactive),19.2 µM (inactive),14.6 µM (inactive),8.43 µM (inactive),12.7 µM (inactive),14.1 µM (inactive),22.4 µM (inactive),13.6 µM (inactive),5.98 µM (inactive),13.7 µM (inactive),15.4 µM (inactive),27.7 µM (inactive),4.57 µM (inactive),5.48 µM (inactive),13.1 µM (inactive)
O=S(=O)(O)C(Cc1nc2ccccc2[nH]1)S(=O)(=O)OCCC1S(=O)(=O)OCCOS1(=O)=O (stereo not drawn),> 100 µM (inactive),> 100 µM (inactive),> 100 µM (inactive),> 100 µM (inactive),> 100 µM (inactive),> 100 µM (inactive),> 100 µM (inactive),> 100 µM (inactive),> 100 µM (inactive),> 100 µM (inactive),> 100 µM (inactive),> 100 µM (inactive),> 100 µM (inactive),> 100 µM (inactive),> 100 µM (inactive),> 100 µM (inactive),> 100 µM (inactive),> 100 µM (inactive),> 100 µM (inactive),> 100 µM (inactive)
COc1cccc(/C=C2\CCCc3ccccc3C2=O)c1,16.2 µM (inactive),17.9 µM (inactive),14.5 µM (inactive),13.3 µM (inactive),17.3 µM (inactive),14.9 µM (inactive),23.4 µM (inactive),15 µM (inactive),–,21.3 µM (inactive),13.1 µM (inactive),15.3 µM (inactive),15.1 µM (inactive),12.3 µM (inactive),13.4 µM (inactive),15.2 µM (inactive),10 µM (inactive),13.6 µM (inactive),6.35 µM (inactive),17.9 µM (inactive)

# — ChEMBL document CHEMBL1201862, “PubChem BioAssay data set” (2004)
